Measurements published in PubChem BioAssay (NCI).
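96-well plates; 48 h exposure; 5 concentrations. Endpoints by linear interpolation between flanking doses. Not reached: highest tested concentration assigned. Definition used: TGI = concentration required for complete inhibition of growth.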

Experiments:
Assay in all cases: inhibition of tumour cell growth, NCI panel, 48 h
[1] = system: 786-0 renal
[2] = system: A549 NSCLC
[3] = system: ACHN renal
[4] = system: CAKI-1 renal
[5] = system: CCRF-CEM leukemia
[6] = system: COLO 205 colon
[7] = system: DU-145 prostate
[8] = system: EKVX NSCLC
[9] = system: HCC-2998 colon
[10] = system: HCT-116 colon
[11] = system: HCT-15 colon
[12] = system: HL-60(TB) leukemia
[13] = system: HOP-62 NSCLC
[14] = system: HOP-92 NSCLC
[15] = system: HS 578T breast
[16] = system: HT29 colon
[17] = system: IGROV1 ovarian
[18] = system: K-562 leukemia
[19] = system: KM12 colon
[20] = system: LOX IMVI melanoma
[21] = system: M14 melanoma
[22] = system: MALME-3M melanoma
[23] = system: MCF7 breast
[24] = system: MDA-MB-435
[25] = system: MDA-N
[26] = system: MOLT-4 leukemia
[27] = system: NCI-H23 lung
[28] = system: NCI-H460 lung
[29] = system: NCI-H522 lung
[30] = system: NCI/ADR-RES ovarian
[31] = system: OVCAR-3 ovarian
[32] = system: OVCAR-4 ovarian
[33] = system: OVCAR-5 ovarian
[34] = system: OVCAR-8 ovarian
[35] = system: PC-3 prostate
[36] = system: RPMI-8226 leukemia
[37] = system: SF-268 CNS
[38] = system: SF-295 CNS
[39] = system: SK-MEL-2 melanoma
[40] = system: SK-MEL-28 melanoma
[41] = system: SK-MEL-5 melanoma
[42] = system: SK-OV-3 ovarian
[43] = system: SN12C renal
[44] = system: SNB-19 CNS
[45] = system: SNB-75 CNS
[46] = system: SR leukemia
[47] = system: SW-620 colon
[48] = system: T-47D breast
[49] = system: TK-10 renal
[50] = system: U251 CNS
[51] = system: UACC-257 melanoma
[52] = system: UACC-62 melanoma
[53] = system: UO-31 renal
[54] = system: A498 renal
[55] = system: MDA-MB-231 breast
[56] = system: NCI-H226 lung
[57] = system: RXF 393 renal
[58] = system: SF-539 CNS

## CC(=O)c1c2c(cc3c1CC1(C3)Cc3cc4c(c(C(=O)O)c3C1)CCCC4)CCCC2 (stereo not given) (tested in a mixture with another compound)
[1]
  TGI: > 100 µM
[2]
  TGI: > 100 µM
[3]
  TGI: > 100 µM
[4]
  TGI: > 100 µM
[5]
  TGI: 94.6 µM
[6]
  TGI: 68.4 µM
[7]
  TGI: > 100 µM
[8]
  TGI: > 100 µM
[9]
  TGI: 93.6 µM
[10]
  TGI: 72.4 µM
[11]
  TGI: > 100 µM
[12]
  TGI: 54.9 µM
[13]
  TGI: 44.6 µM
[14]
  TGI: 39.7 µM
[15]
  TGI: > 100 µM
[16]
  TGI: > 100 µM
[17]
  TGI: > 100 µM
[18]
  TGI: > 100 µM
[19]
  TGI: 59.7 µM
[20]
  TGI: > 100 µM
[21]
  TGI: 96.2 µM
[22]
  TGI: > 100 µM
[23]
  TGI: > 100 µM
[24]
  TGI: > 100 µM
[25]
  TGI: > 100 µM
[26]
  TGI: 43.9 µM
[27]
  TGI: > 100 µM
[28]
  TGI: 53.6 µM
[29]
  TGI: > 100 µM
[30]
  TGI: > 100 µM
[31]
  TGI: 48.7 µM
[32]
  TGI: > 100 µM
[33]
  TGI: > 100 µM
[34]
  TGI: > 100 µM
[35]
  TGI: > 100 µM
[36]
  TGI: 89.3 µM
[37]
  TGI: > 100 µM
[38]
  TGI: > 100 µM
[39]
  TGI: 60.5 µM
[40]
  TGI: > 100 µM
[41]
  TGI: 63.7 µM
[42]
  TGI: > 100 µM
[43]
  TGI: > 100 µM
[44]
  TGI: > 100 µM
[45]
  TGI: > 100 µM
[46]
  TGI: 53.8 µM
[47]
  TGI: > 100 µM
[48]
  TGI: > 100 µM
[49]
  TGI: > 100 µM
[50]
  TGI: 72.6 µM
[51]
  TGI: 74.3 µM
[52]
  TGI: > 100 µM
[53]
  TGI: 40.6 µM

## N#Cc1nc(C(O)c2ccccc2)oc1N (stereo not given)
[1]
  TGI: > 100 µM
[54]
  TGI: > 100 µM
[2]
  TGI: > 100 µM
[3]
  TGI: > 100 µM
[4]
  TGI: > 100 µM
[5]
  TGI: > 100 µM
[6]
  TGI: > 100 µM
[7]
  TGI: > 100 µM
[8]
  TGI: > 100 µM
[10]
  TGI: > 100 µM
[12]
  TGI: > 100 µM
[13]
  TGI: > 100 µM
[14]
  TGI: > 100 µM
[15]
  TGI: > 100 µM
[16]
  TGI: > 100 µM
[17]
  TGI: > 100 µM
[18]
  TGI: > 100 µM
[19]
  TGI: > 100 µM
[20]
  TGI: > 100 µM
[21]
  TGI: > 100 µM
[22]
  TGI: > 100 µM
[23]
  TGI: > 100 µM
[55]
  TGI: > 100 µM
[25]
  TGI: > 100 µM
[26]
  TGI: > 100 µM
[56]
  TGI: > 100 µM
[27]
  TGI: > 100 µM
[29]
  TGI: > 100 µM
[30]
  TGI: > 100 µM
[31]
  TGI: > 100 µM
[33]
  TGI: > 100 µM
[34]
  TGI: > 100 µM
[35]
  TGI: > 100 µM
[36]
  TGI: > 100 µM
[57]
  TGI: > 100 µM
[37]
  TGI: > 100 µM
[38]
  TGI: > 100 µM
[58]
  TGI: > 100 µM
[39]
  TGI: > 100 µM
[40]
  TGI: > 100 µM
[41]
  TGI: > 100 µM
[42]
  TGI: > 100 µM
[43]
  TGI: > 100 µM
[44]
  TGI: > 100 µM
[45]
  TGI: > 100 µM
[47]
  TGI: > 100 µM
[48]
  TGI: > 100 µM
[49]
  TGI: > 100 µM
[50]
  TGI: > 100 µM
[51]
  TGI: > 100 µM
[52]
  TGI: > 100 µM
[53]
  TGI: > 100 µM
